ΔTm and ΔTagg data for four molecules are collected here from publication PMC12055656, “Screening the Pandemic Response Box identifies novel ligands of the Staphylococcus aureus protein arginine kinase, McsB” (Molecular Biology Reports, 2025).

Each structure is given as a SMILES string.

The target in assay [1] is T1, Staphylococcus aureus McsB (Staphylococcus aureus, UniProt Q2G0P6).
T1 construct: full length, His-tagged, pET-28a(+), expressed in E. coli BL21(DE3), Ni-NTA purified, ~42 kDa; tag kept (anti-His blot); E. coli lysate containing it used for CETSA
T1 sequence (Q2G0P6 whole entry): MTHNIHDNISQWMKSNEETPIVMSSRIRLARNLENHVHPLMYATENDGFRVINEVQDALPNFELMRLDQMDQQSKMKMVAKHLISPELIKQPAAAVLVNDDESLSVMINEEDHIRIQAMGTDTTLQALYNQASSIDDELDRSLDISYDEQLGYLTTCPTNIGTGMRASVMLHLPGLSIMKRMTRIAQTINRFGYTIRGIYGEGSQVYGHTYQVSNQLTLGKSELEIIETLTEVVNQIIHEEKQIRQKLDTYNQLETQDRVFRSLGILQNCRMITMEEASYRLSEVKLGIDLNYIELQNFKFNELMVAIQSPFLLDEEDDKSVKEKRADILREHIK
As to the kind of experiment: biochemical. The settings on record: TSA, purified McsB. Details: Thermal shift assay (SYPRO Orange) of purified His-tagged McsB, melting temperature shift versus DMSO. As for the experimental part:
The thermal shift assay (TSA) was performed by incubating 0.1 µg/µl of purified McsB in assay buffer (50 mM sodium phosphate, 300 mM NaCl, pH 7.4) with 10X SYPRO Orange fluorescent dye (ThermoFisher Scientific, USA) in a final reaction volume of 20 µl. For primary screening, compounds from the Pandemic Response Box were tested in a pooled format (10 compounds per pool at 10 µM each, 40 pools total). Each pool was incubated with the protein-dye mixture for 1 h at 4 °C, followed by thermal denaturation (25–99 °C, at a ramp rate of 0.5 °C/s). Fluorescence was monitored at 470/586 nm (excitation/emission) using a QuantStudio 5 Real-Time PCR System (Applied Biosystems, ThermoFisher Scientific, USA). Compounds from pools that induced a significant increase in McsB melting temperature (Tm) relative to a DMSO control– indicating engagement with the target protein– were further evaluated individually at 10 µM. All Tm values were determined from derivative curves (dF/dT) using Protein Thermal Shift Software v1.4 (ThermoFisher Scientific, USA) and represent the average of at least three independent replicates (n ≥ 3). Recombinant McsB was expressed in E. coli BL21(DE3) cells and purified using Ni-NTA resin. SDS-PAGE and western blot analysis confirmed the isolation of a ~ 42 kDa His-tagged protein (Fig. 1), consistent with previous reports. The Pandemic Response Box was divided into 40 pools containing 10 compounds each and screened for stabilizing ligands of the purified McsB using TSA. Three groups- B4, C3 and E3- produced the most pronounced increases in McsB melting temperature, elevating it from 54.5 °C to 63.1, 64.0 and 62.8 °C, respectively (Fig. 2A). To identify the active compounds, we screened the 30 individual compounds from these pools, and found nine compounds that increased McsB melting temperature by 0.5–1.2 °C (Fig. 2B and C). Of these, seven induced statistically significant shifts, with MMV1593539 yielding the greatest stabilization (ΔTm = 1.2 ± 0.1 °C, p < 0.0001).

Assay [2] has as its target T1, Staphylococcus aureus McsB. The arrangement: CETSA, anti-His western blot, shift of McsB aggregation temperature. As to conditions: CETSA, aggregation temperature shift; binder.

A word on the ΔTm: it is the change in melting temperature against a reference sample. On to `CCCC(=O)OCCc1ccccc1` [MMV1578899, 2-phenylethyl butanoate 2-phenylethyl butanoate], for which the shift in melting temperature (ΔTm) at 10 µM in assay [1] was 0.9 ± 0.412 °C. Further, the ΔTagg in assay [2] amounted to 0.78 ± 0.339 °C.
Turning to `Nc1nc(-c2ccccc2)nc2[nH]nc(Nc3ccc(C(F)(F)F)cc3)c12` [MMV1633968, 6-phenyl-3-N-[4-(trifluoromethyl)phenyl]-1H-pyrazolo[3,4-d]pyrimidine-3,4-diamine], the ΔTm at 10 µM in assay [1] was 0.78 ± 0.081 °C.
Regarding `Cn1cc(NC(=O)c2cc(NC(=O)c3ccc(/C=C/c4cnc5ccccc5c4)cc3)cn2C)cc1C(=O)NCCN1CCOCC1` [MMV1634391], the ΔTm at 10 µM in assay [1] worked out at 0.473 ± 0.374 °C.
Turning to `Nc1nc2c(Cc3cccnc3)c[nH]c2c(=O)[nH]1` [MMV1782355], the ΔTm at 10 µM in assay [1] came to 0.677 ± 0.098 °C. For the same molecule, in assay [2], the ΔTagg stood at 0.63 ± 0.54 °C.
